Experimental data published in patent US20110136666A1, “CHEMICAL COMPOUNDS” (SYNGENTA CROP PROTECTION, INC., priority 2008, published 2011).

The compounds below were run on Alopecurus myosuroides (ALOMY) (assay: Pre-emergence biological efficacy, glasshouse pot test). Details: 312 h, 250 g/ha, after 13 days, 100=total damage, 0=no damage, read-out: Percentage damage caused to weed species ALOMY.
Format: in vivo
Method: (§1) Seeds of Alopecurus myosuroides (ALOMY), Setaria faberi (SETFA), Echinochloa crus-galli (ECHCG), Solanum nigrum (SOLNI), Amaranthus retroflexus (AMARE) and Ipomea hederaceae (IPOHE) were sown in standard soil in pots. After cultivation for one day under controlled conditions in a glasshouse (at 24/16° C., day/night; 14 hours light; 65% humidity), the plants were sprayed with an aqueous spray solution derived from the formulation of the technical active ingredient in acetone/water (50:50) solution containing 0.5% Tween 20 (polyoxyethylene sorbitan monolaurate, CAS RN 9005-64-5) to give a final dose of 250 or 1000 g/ha of test compound.
(§2) The test plants were then grown under controlled conditions in the glasshouse (at 24/16° C., day/night; 14 hours light; 65% humidity) and watered twice daily. After 13 days the test was evaluated (100=total damage to plant; 0=no damage to plant).
With COC(=O)c1nc(-c2ncc3ccccn23)nc(N)c1Cl [Compound 2-146, 4-Amino-5-chloro-2-(imidazo[1,5-a]pyridin-3-yl)-6-methoxycarbonyl pyrimidine] the pest or weed control at 250 g/ha was 0%.

Same assay, conditions: 312 h, 1000 g/ha, after 13 days, 100=total damage, 0=no damage, read-out: Percentage damage caused to weed species ALOMY
In the case of COC(=O)c1nc(-c2cc3ccccc3s2)nc(N)c1Cl [Compound 2-54, 4-Amino-2-(benzothiophen-2-yl)-5-chloro-6-methoxycarbonyl pyrimidine], the pest or weed control at 1000 g/ha is reported as 20%. For COC(=O)c1nc(-c2csc3ccccc23)nc(N)c1Cl [Compound 2-56, 4-Amino-2-(benzothiophen-3-yl)-5-chloro-6-methoxycarbonyl pyrimidine], the pest or weed control at 1000 g/ha was 0%.

The compounds below were run on Amaranthus retroflexus (AMARE) in the same assay as above. Details: 312 h, 250 g/ha, after 13 days, 100=total damage, 0=no damage, read-out: Percentage damage caused to weed species AMARE.
Format: in vivo
Method: as §1, §2
Work on COC(=O)c1nc(-c2ncc3ccccn23)nc(N)c1Cl [Compound 2-146, 4-Amino-5-chloro-2-(imidazo[1,5-a]pyridin-3-yl)-6-methoxycarbonyl pyrimidine] yielded a pest or weed control at 250 g/ha of 0%.

Same assay, conditions: 312 h, 1000 g/ha, after 13 days, 100=total damage, 0=no damage, read-out: Percentage damage caused to weed species AMARE
COC(=O)c1nc(-c2cc3ccccc3s2)nc(N)c1Cl [Compound 2-54, 4-Amino-2-(benzothiophen-2-yl)-5-chloro-6-methoxycarbonyl pyrimidine] gave a pest or weed control at 1000 g/ha of 70%. COC(=O)c1nc(-c2csc3ccccc23)nc(N)c1Cl [Compound 2-56, 4-Amino-2-(benzothiophen-3-yl)-5-chloro-6-methoxycarbonyl pyrimidine] gave a pest or weed control at 1000 g/ha of 60%.

These compounds were tested on Echinochloa crus-galli (ECHCG) in the same assay as above. Details: 312 h, 250 g/ha, after 13 days, 100=total damage, 0=no damage, read-out: Percentage damage caused to weed species ECHCG.
Format: in vivo
Method: as §1, §2
For COC(=O)c1nc(-c2ncc3ccccn23)nc(N)c1Cl [Compound 2-146, 4-Amino-5-chloro-2-(imidazo[1,5-a]pyridin-3-yl)-6-methoxycarbonyl pyrimidine], the pest or weed control at 250 g/ha was 0%.

Same assay, conditions: 312 h, 1000 g/ha, after 13 days, 100=total damage, 0=no damage, read-out: Percentage damage caused to weed species ECHCG
For COC(=O)c1nc(-c2cc3ccccc3s2)nc(N)c1Cl [Compound 2-54, 4-Amino-2-(benzothiophen-2-yl)-5-chloro-6-methoxycarbonyl pyrimidine], the pest or weed control at 1000 g/ha was 70%. Work on COC(=O)c1nc(-c2csc3ccccc23)nc(N)c1Cl [Compound 2-56, 4-Amino-2-(benzothiophen-3-yl)-5-chloro-6-methoxycarbonyl pyrimidine] yielded a pest or weed control at 1000 g/ha of 0%.

The compounds below were run on Ipomea hederaceae (IPOHE) in the same assay as above. Details: Ipomoea hederacea, 312 h, 250 g/ha, after 13 days, 100=total damage, 0=no damage, read-out: Percentage damage caused to weed species IPOHE.
Format: in vivo
Method: as §1, §2
For COC(=O)c1nc(-c2ncc3ccccn23)nc(N)c1Cl [Compound 2-146, 4-Amino-5-chloro-2-(imidazo[1,5-a]pyridin-3-yl)-6-methoxycarbonyl pyrimidine], the pest or weed control at 250 g/ha was 0%.

Same assay, conditions: Ipomoea hederacea, 312 h, 1000 g/ha, after 13 days, 100=total damage, 0=no damage, read-out: Percentage damage caused to weed species IPOHE
For COC(=O)c1nc(-c2cc3ccccc3s2)nc(N)c1Cl [Compound 2-54, 4-Amino-2-(benzothiophen-2-yl)-5-chloro-6-methoxycarbonyl pyrimidine], the pest or weed control at 1000 g/ha was 0%. COC(=O)c1nc(-c2csc3ccccc23)nc(N)c1Cl [Compound 2-56, 4-Amino-2-(benzothiophen-3-yl)-5-chloro-6-methoxycarbonyl pyrimidine] was tested, and the pest or weed control at 1000 g/ha was 0%.

Each compound was assayed on Setaria faberi (SETFA) in the same assay as above. Details: 312 h, 250 g/ha, after 13 days, 100=total damage, 0=no damage, read-out: Percentage damage caused to weed species SETFA.
Format: in vivo
Method: as §1, §2
For COC(=O)c1nc(-c2ncc3ccccn23)nc(N)c1Cl [Compound 2-146, 4-Amino-5-chloro-2-(imidazo[1,5-a]pyridin-3-yl)-6-methoxycarbonyl pyrimidine], the pest or weed control at 250 g/ha was 0%.

Same assay, conditions: 312 h, 1000 g/ha, after 13 days, 100=total damage, 0=no damage, read-out: Percentage damage caused to weed species SETFA
For COC(=O)c1nc(-c2cc3ccccc3s2)nc(N)c1Cl [Compound 2-54, 4-Amino-2-(benzothiophen-2-yl)-5-chloro-6-methoxycarbonyl pyrimidine], the pest or weed control at 1000 g/ha was 20%. COC(=O)c1nc(-c2csc3ccccc23)nc(N)c1Cl [Compound 2-56, 4-Amino-2-(benzothiophen-3-yl)-5-chloro-6-methoxycarbonyl pyrimidine] gave a pest or weed control at 1000 g/ha of 0%.

These compounds were tested on Solanum nigrum (SOLNI) in the same assay as above. Details: 312 h, 250 g/ha, after 13 days, 100=total damage, 0=no damage, read-out: Percentage damage caused to weed species SOLNI.
Format: in vivo
Method: as §1, §2
COC(=O)c1nc(-c2ncc3ccccn23)nc(N)c1Cl [Compound 2-146, 4-Amino-5-chloro-2-(imidazo[1,5-a]pyridin-3-yl)-6-methoxycarbonyl pyrimidine] gave a pest or weed control at 250 g/ha of 0%.

Same assay, conditions: 312 h, 1000 g/ha, after 13 days, 100=total damage, 0=no damage, read-out: Percentage damage caused to weed species SOLNI
COC(=O)c1nc(-c2cc3ccccc3s2)nc(N)c1Cl [Compound 2-54, 4-Amino-2-(benzothiophen-2-yl)-5-chloro-6-methoxycarbonyl pyrimidine] gave a pest or weed control at 1000 g/ha of 20%. COC(=O)c1nc(-c2csc3ccccc23)nc(N)c1Cl [Compound 2-56, 4-Amino-2-(benzothiophen-3-yl)-5-chloro-6-methoxycarbonyl pyrimidine] was tested, and the pest or weed control at 1000 g/ha was 0%.

Each compound was assayed on Alopecurus myosuroides (ALOMY) (assay: Post-emergence biological efficacy, glasshouse pot test). Details: 312 h, 250 g/ha, after 13 days, 100=total damage, 0=no damage, read-out: Percentage damage caused to weed species ALOMY.
Format: in vivo
Method: as §1, with “8 days” for “one day”
(§3) The test plants were then grown on under controlled conditions in a glasshouse (at 24/16° C., day/night; 14 hours light; 65% humidity) and watered twice daily. After 13 days the test was evaluated (100=total damage to plant; 0=no damage to plant).
Work on COC(=O)c1nc(-c2ncc3ccccn23)nc(N)c1Cl [Compound 2-146, 4-Amino-5-chloro-2-(imidazo[1,5-a]pyridin-3-yl)-6-methoxycarbonyl pyrimidine] yielded a pest or weed control at 250 g/ha of 0%.

Same assay, conditions: 312 h, 1000 g/ha, after 13 days, 100=total damage, 0=no damage, read-out: Percentage damage caused to weed species ALOMY
COC(=O)c1nc(-c2cc3ccccc3s2)nc(N)c1Cl [Compound 2-54, 4-Amino-2-(benzothiophen-2-yl)-5-chloro-6-methoxycarbonyl pyrimidine] showed a pest or weed control at 1000 g/ha of 0%. Work on COC(=O)c1nc(-c2csc3ccccc23)nc(N)c1Cl [Compound 2-56, 4-Amino-2-(benzothiophen-3-yl)-5-chloro-6-methoxycarbonyl pyrimidine] yielded a pest or weed control at 1000 g/ha of 20%.

The compounds below were run on Amaranthus retroflexus (AMARE) in the same assay as above. Details: 312 h, 250 g/ha, after 13 days, 100=total damage, 0=no damage, read-out: Percentage damage caused to weed species AMARE.
Format: in vivo
Method: as §1, with “8 days” for “one day”
as §3
Work on COC(=O)c1nc(-c2ncc3ccccn23)nc(N)c1Cl [Compound 2-146, 4-Amino-5-chloro-2-(imidazo[1,5-a]pyridin-3-yl)-6-methoxycarbonyl pyrimidine] yielded a pest or weed control at 250 g/ha of 30%.

Same assay, conditions: 312 h, 1000 g/ha, after 13 days, 100=total damage, 0=no damage, read-out: Percentage damage caused to weed species AMARE
COC(=O)c1nc(-c2cc3ccccc3s2)nc(N)c1Cl [Compound 2-54, 4-Amino-2-(benzothiophen-2-yl)-5-chloro-6-methoxycarbonyl pyrimidine] gave a pest or weed control at 1000 g/ha of 70%. With COC(=O)c1nc(-c2csc3ccccc23)nc(N)c1Cl [Compound 2-56, 4-Amino-2-(benzothiophen-3-yl)-5-chloro-6-methoxycarbonyl pyrimidine] the pest or weed control at 1000 g/ha was 100%.

These compounds were tested on Echinochloa crus-galli (ECHCG) in the same assay as above. Details: 312 h, 250 g/ha, after 13 days, 100=total damage, 0=no damage, read-out: Percentage damage caused to weed species ECHCG.
Format: in vivo
Method: as §1, with “8 days” for “one day”
as §3
Compound COC(=O)c1nc(-c2ncc3ccccn23)nc(N)c1Cl [Compound 2-146, 4-Amino-5-chloro-2-(imidazo[1,5-a]pyridin-3-yl)-6-methoxycarbonyl pyrimidine] has a pest or weed control at 250 g/ha of 0%.

Same assay, conditions: 312 h, 1000 g/ha, after 13 days, 100=total damage, 0=no damage, read-out: Percentage damage caused to weed species ECHCG
COC(=O)c1nc(-c2cc3ccccc3s2)nc(N)c1Cl [Compound 2-54, 4-Amino-2-(benzothiophen-2-yl)-5-chloro-6-methoxycarbonyl pyrimidine] showed a pest or weed control at 1000 g/ha of 70%. In the case of COC(=O)c1nc(-c2csc3ccccc23)nc(N)c1Cl [Compound 2-56, 4-Amino-2-(benzothiophen-3-yl)-5-chloro-6-methoxycarbonyl pyrimidine], the pest or weed control at 1000 g/ha is reported as 40%.

These compounds were tested on Ipomea hederaceae (IPOHE) in the same assay as above. Details: Ipomoea hederacea, 312 h, 250 g/ha, after 13 days, 100=total damage, 0=no damage, read-out: Percentage damage caused to weed species IPONE.
Format: in vivo
Method: as §1, with “8 days” for “one day”
as §3
COC(=O)c1nc(-c2ncc3ccccn23)nc(N)c1Cl [Compound 2-146, 4-Amino-5-chloro-2-(imidazo[1,5-a]pyridin-3-yl)-6-methoxycarbonyl pyrimidine] gave a pest or weed control at 250 g/ha of 40%.

Same assay, conditions: Ipomoea hederacea, 312 h, 1000 g/ha, after 13 days, 100=total damage, 0=no damage, read-out: Percentage damage caused to weed species IPONE
In the case of COC(=O)c1nc(-c2cc3ccccc3s2)nc(N)c1Cl [Compound 2-54, 4-Amino-2-(benzothiophen-2-yl)-5-chloro-6-methoxycarbonyl pyrimidine], the pest or weed control at 1000 g/ha is reported as 80%. Work on COC(=O)c1nc(-c2csc3ccccc23)nc(N)c1Cl [Compound 2-56, 4-Amino-2-(benzothiophen-3-yl)-5-chloro-6-methoxycarbonyl pyrimidine] yielded a pest or weed control at 1000 g/ha of 20%.

These compounds were tested on Setaria faberi (SETFA) in the same assay as above. Details: 312 h, 250 g/ha, after 13 days, 100=total damage, 0=no damage, read-out: Percentage damage caused to weed species SETFA.
Format: in vivo
Method: as §1, with “8 days” for “one day”
as §3
COC(=O)c1nc(-c2ncc3ccccn23)nc(N)c1Cl [Compound 2-146, 4-Amino-5-chloro-2-(imidazo[1,5-a]pyridin-3-yl)-6-methoxycarbonyl pyrimidine] was tested, and the pest or weed control at 250 g/ha was 0%.

Same assay, conditions: 312 h, 1000 g/ha, after 13 days, 100=total damage, 0=no damage, read-out: Percentage damage caused to weed species SETFA
Compound COC(=O)c1nc(-c2cc3ccccc3s2)nc(N)c1Cl [Compound 2-54, 4-Amino-2-(benzothiophen-2-yl)-5-chloro-6-methoxycarbonyl pyrimidine] has a pest or weed control at 1000 g/ha of 50%. Compound COC(=O)c1nc(-c2csc3ccccc23)nc(N)c1Cl [Compound 2-56, 4-Amino-2-(benzothiophen-3-yl)-5-chloro-6-methoxycarbonyl pyrimidine] has a pest or weed control at 1000 g/ha of 10%.

These compounds were tested on Solanum nigrum (SOLNI) in the same assay as above. Details: 312 h, 250 g/ha, after 13 days, 100=total damage, 0=no damage, read-out: Percentage damage caused to weed species SOLNI.
Format: in vivo
Method: as §1, with “8 days” for “one day”
as §3
Compound COC(=O)c1nc(-c2ncc3ccccn23)nc(N)c1Cl [Compound 2-146, 4-Amino-5-chloro-2-(imidazo[1,5-a]pyridin-3-yl)-6-methoxycarbonyl pyrimidine] has a pest or weed control at 250 g/ha of 30%.

Same assay, conditions: 312 h, 1000 g/ha, after 13 days, 100=total damage, 0=no damage, read-out: Percentage damage caused to weed species SOLNI
For COC(=O)c1nc(-c2cc3ccccc3s2)nc(N)c1Cl [Compound 2-54, 4-Amino-2-(benzothiophen-2-yl)-5-chloro-6-methoxycarbonyl pyrimidine], the pest or weed control at 1000 g/ha was 40%. Compound COC(=O)c1nc(-c2csc3ccccc23)nc(N)c1Cl [Compound 2-56, 4-Amino-2-(benzothiophen-3-yl)-5-chloro-6-methoxycarbonyl pyrimidine] has a pest or weed control at 1000 g/ha of 40%.
